Earlier results on two compounds are cited in paper PMC8533202, “Design of Inhibitors of the Intrinsically Disordered Protein NUPR1: Balance between Drug Affinity and Target Function” (Biomolecules, 2021).

The structures appear in SMILES notation.

By IC50 is commonly meant the midpoint of a concentration-inhibition curve.

Series [1] deals with T1, NUPR1 (Homo sapiens, UniProt O60356).
T1 construct: made in house
T1 sequence (O60356 1-82): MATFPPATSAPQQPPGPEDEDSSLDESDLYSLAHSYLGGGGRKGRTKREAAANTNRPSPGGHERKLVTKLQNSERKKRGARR
On the set-up: method as in PMID 30920390. As to conditions: ITC; cited from earlier work. On the technique in general: Isothermal titration calorimetry measures the heat released or taken up as one component is titrated into another.

Another series concerns PDAC001T cells. Further details: method as in PMID 30920390. The conditions noted are these: control, previously obtained; cited from earlier work.
A further series concerns PDAC012T cells. On the set-up: method as in PMID 30920390. The conditions noted are these: control, previously obtained; cited from earlier work.
The next series has as its system PDAC021T cells. Further details: method as in PMID 30920390. The conditions noted are these: control, previously obtained; cited from earlier work.
The next series has as its system PDAC081T cells. Further details: method as in PMID 30920390. As to conditions: control, previously obtained; cited from earlier work.
Another series relates to PDAC082T cells. On the set-up: method as in PMID 30920390. As to conditions: control, previously obtained; cited from earlier work.
The subject of another series is PDAC087T cells. Further details: method as in PMID 30920390. The conditions noted are these: control, previously obtained; cited from earlier work.
For another series, the system named is PDAC088T cells. On the set-up: method as in PMID 30920390. The conditions noted are these: control, previously obtained; cited from earlier work.
In the next series the test system is PDAC089T cells. Further details: method as in PMID 30920390. The conditions noted are these: control, previously obtained; cited from earlier work.
A further series concerns PDAC115T cells. Further details: method as in PMID 30920390. The conditions noted are these: control, previously obtained; cited from earlier work.
The next series relates to MiaPaCa-2 cells. On the set-up: method as in PMID 30920390. The conditions noted are these: control, previously obtained; cited from earlier work.
For series [2], the target named is T1, NUPR1. Further details: method as in PMID 28054562. The conditions noted are these: molecular scaffold of TFP; cited from earlier work.

Turning to `CN1CCN(CCCN2c3ccccc3Sc3ccc(C(F)(F)F)cc32)CC1` [TFP, trifluoperazine], at NUPR1 [1], the Ka is reported as 1.9 ± 0.2 M^–1 × 10^5. Moreover, at NUPR1 [1], the “N (stoichiometry)” value is 1.0 ± 0.1. The ΔG on NUPR1 [1] is given as −7.2 ± 0.1 kcal mol^–1. Besides, the ΔH on NUPR1 [1] is on record as −1.1 ± 0.4 kcal mol^–1. Moreover, the “−TΔS” value on NUPR1 [1] is given as −6.1 ± 0.4 kcal mol^–1. Also, the IC50 is 12.5 µM with PDAC001T cells; 20.4 µM in the series with PDAC012T cells; 23.5 µM in the series with PDAC021T cells; 2.48 µM with PDAC081T cells; 21.5 µM with PDAC082T cells; 7.8 µM with PDAC087T cells. Further, the IC50 in the series with PDAC088T cells was 15.9 µM; in the series on PDAC089T cells, 8.09 µM; with PDAC115T cells, 10.1 µM; in the series with MiaPaCa-2 cells, 9.28 µM. The calculated binding score result on NUPR1 [2] is “–7.0 kcal/mol”.

Consider `CN(C)CCN1CCN(CCCN2c3ccccc3Sc3ccc(C(F)(F)F)cc32)CC1` [ZZW-115], for which, on NUPR1 [1], the Ka is given as 4.7 ± 0.4 M^–1 × 10^5. On NUPR1 [1], the “N (stoichiometry)” value is listed as 0.9 ± 0.1. The ΔG at NUPR1 [1] is −7.7 ± 0.1 kcal mol^–1. At NUPR1 [1], the ΔH was −0.4 ± 0.3 kcal mol^–1. Also, the “−TΔS” value at NUPR1 [1] was −7.3 ± 0.3 kcal mol^–1. In addition, the IC50 was 1.84 µM with PDAC001T cells; 2.44 µM in the series with PDAC012T cells; 2.54 µM in the series with PDAC021T cells; 0.84 µM in the series on PDAC081T cells; 2.36 µM with PDAC082T cells; 3.72 µM in the series with PDAC087T cells. Besides, the IC50 with PDAC088T cells is 5.29 µM; in the series with PDAC089T cells, 4.72 µM; in the series on PDAC115T cells it was 2.21 µM; in the series on MiaPaCa-2 cells it was 0.32 µM.
